Measurements taken from PubChem BioAssay (NCI).
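Exposure lasted 48 hours, with cells grown in 96-well plates and compounds tested at five concentrations. GI50 is the concentration that inhibits growth by half. The concentration for full growth arrest is given as TGI.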

Key:
Experiment in all cases: NCI-60 cell line screen, 48 h
[1] = tested on: ACHN renal
[2] = tested on: CCRF-CEM leukemia
[3] = tested on: NCI-H226 lung
[4] = tested on: RXF 393 renal
[5] = tested on: SN12C renal
[6] = tested on: SK-OV-3 ovarian
[7] = tested on: MALME-3M melanoma
[8] = tested on: LOX IMVI melanoma
[9] = tested on: SF-295 CNS
[10] = tested on: UACC-257 melanoma
[11] = tested on: M14 melanoma
[12] = tested on: SR leukemia
[13] = tested on: MOLT-4 leukemia
[14] = tested on: NCI-H460 lung
[15] = tested on: TK-10 renal
[16] = tested on: UO-31 renal
[17] = tested on: A549 NSCLC
[18] = tested on: SF-268 CNS
[19] = tested on: UACC-62 melanoma
[20] = tested on: HL-60(TB) leukemia
[21] = tested on: IGROV1 ovarian
[22] = tested on: OVCAR-4 ovarian
[23] = tested on: 786-0 renal
[24] = tested on: K-562 leukemia
[25] = tested on: COLO 205 colon
[26] = tested on: T-47D breast
[27] = tested on: SNB-19 CNS
[28] = tested on: HT29 colon
[29] = tested on: SK-MEL-5 melanoma
[30] = tested on: EKVX NSCLC
[31] = tested on: NCI/ADR-RES ovarian
[32] = tested on: RPMI-8226 leukemia
[33] = tested on: NCI-H522 lung
[34] = tested on: SNB-75 CNS
[35] = tested on: CAKI-1 renal
[36] = tested on: MDA-MB-435
[37] = tested on: BT-549 breast
[38] = tested on: OVCAR-5 ovarian
[39] = tested on: OVCAR-8 ovarian
[40] = tested on: HOP-92 NSCLC
[41] = tested on: HS 578T breast
[42] = tested on: U251 CNS
[43] = tested on: PC-3 prostate
[44] = tested on: HOP-62 NSCLC
[45] = tested on: A498 renal
[46] = tested on: DU-145 prostate
[47] = tested on: NCI-H23 lung
[48] = tested on: SF-539 CNS
[49] = tested on: HCT-116 colon
[50] = tested on: SK-MEL-28 melanoma
[51] = tested on: KM12 colon
[52] = tested on: MDA-MB-231 breast

Q: Which results are given for `O=C1c2c(c3c4cc(Br)ccc4[nH]c3c3ccc4ccccc4c23)C(=O)N1CCN1CCNCC1`?
A: GI50 [1]: 11.1 µM; TGI [1]: 27.4 µM; GI50 [2]: 0.947 µM; TGI [2]: 6.8 µM; GI50 [3]: 10.8 µM; TGI [3]: 39.5 µM; GI50 [4]: 6.97 µM; TGI [4]: 23.4 µM; GI50 [5]: 13.5 µM; TGI [5]: 36.6 µM; GI50 [6]: 16.2 µM; TGI [6]: 30.8 µM; GI50 [7]: 14.3 µM; TGI [7]: 36.3 µM; GI50 [8]: 2.06 µM; TGI [8]: 5.3 µM; GI50 [9]: 13.9 µM; TGI [9]: 32.9 µM; GI50 [10]: 12.9 µM; TGI [10]: 28.4 µM; GI50 [11]: 10.7 µM; TGI [11]: 25.7 µM; GI50 [12]: 0.507 µM; TGI [12]: 2.79 µM; GI50 [13]: 1.04 µM; TGI [13]: 4.14 µM; GI50 [14]: 2.38 µM; TGI [14]: 10.2 µM; GI50 [15]: 19.8 µM; TGI [15]: 38.1 µM; GI50 [16]: 11.2 µM; TGI [16]: 27.2 µM; GI50 [17]: 2.6 µM; TGI [17]: 9.13 µM; GI50 [18]: 12.3 µM; TGI [18]: 36.3 µM; GI50 [19]: 12.8 µM; TGI [19]: 31.3 µM; GI50 [20]: 6.78 µM; TGI [20]: 26 µM; GI50 [21]: 11.8 µM; TGI [21]: 33.7 µM; GI50 [22]: 12.3 µM; TGI [22]: 33.9 µM; GI50 [23]: 2.94 µM; TGI [23]: 9.44 µM; GI50 [24]: 1.28 µM; TGI [24]: 3.05 µM; GI50 [25]: 6.51 µM; TGI [25]: 27.7 µM; GI50 [26]: 4.3 µM; TGI [26]: 26 µM; GI50 [27]: 1.8 µM; TGI [27]: 3.79 µM; GI50 [28]: 1.64 µM; TGI [28]: 3.11 µM; GI50 [29]: 18.1 µM; TGI [29]: 38 µM; GI50 [30]: 1.98 µM; TGI [30]: 4.96 µM; GI50 [31]: 3.66 µM; TGI [31]: 26.7 µM; GI50 [32]: 2.19 µM; TGI [32]: 5.26 µM; GI50 [33]: 1.67 µM; TGI [33]: 7.46 µM; GI50 [34]: 18.3 µM; TGI [34]: 35.5 µM; GI50 [35]: 10.5 µM; TGI [35]: 24.6 µM; GI50 [36]: 3.12 µM; TGI [36]: 10.8 µM; GI50 [37]: 13.1 µM; TGI [37]: 30.7 µM; GI50 [38]: 2.88 µM; TGI [38]: 9.14 µM; GI50 [39]: 1.96 µM; TGI [39]: 5 µM; GI50 [40]: 14.4 µM; TGI [40]: 28.7 µM; GI50 [41]: 17.9 µM; TGI [41]: 52.4 µM; GI50 [42]: 1.49 µM; TGI [42]: 2.86 µM; GI50 [43]: 2.91 µM; TGI [43]: 11 µM; GI50 [44]: 6.28 µM; TGI [44]: 26.9 µM; GI50 [45]: 16.1 µM; TGI [45]: 29.8 µM; GI50 [46]: 2.09 µM; TGI [46]: 4.53 µM; GI50 [47]: 2.96 µM; TGI [47]: 12.7 µM; GI50 [48]: 1.92 µM; TGI [48]: 3.82 µM; GI50 [49]: 1.73 µM; TGI [49]: 3.13 µM; GI50 [50]: 15.7 µM; TGI [50]: 35.1 µM; GI50 [51]: 3.21 µM; TGI [51]: 11.6 µM; GI50 [52]: 2.34 µM; TGI [52]: 6.32 µM
